Test results published in patent US10093696B2, “Nitric oxide donating carnosine compounds” (NICOX SCIENCE IRELAND, priority 2014, dated 2018).

Experiments:
[1] = tested on: hypertonic saline-induced IOP increase in rabbits; experiment: Intraocular pressure (IOP) lowering activity in hypertonic saline-induced IOP increase in rabbits; assay type: in vivo, New Zealand White rabbits; conditions: for IOP change 60 minutes / IOP change 120 minutes / IOP change 240 minutes: single topical application; for IOP reduction after single application (in words): compared to ISMN and timolol
Protocol: The present study evaluated the intraocular pressure lowering effect of single applications of two compounds of the inventions (compound (1a) and compound (4a)) and two reference compounds at the same concentrations and in rabbits with induced IOP increase.
Adult male New Zealand White rabbits weighting 1.8-2.0 Kg were used in the experiments.
The transient increase in IOP was induced by the injection of 0.1 ml of hypertonic saline solution (5%) into the vitreous bilaterally (Krauss et al., 2011, Orihashi et al., 2005).
(§1) IOP was measured using a Tono-Pen XL prior to hypertonic saline injection (basal) and at 30, 60, 120 and 240 min thereafter. Vehicle (5% cremophor-EL; 0.3% DMSO; 0.2 mg/ml Benzalkonium chloride in PBS pH 6.0) or compound (1.0%) was instilled as eye drops immediately after hypertonic saline injection. Eyes were randomly assigned to different treatment groups. Vehicle and compounds were directly instilled into the conjunctiva pocket at the desired doses. One drop of 0.4% oxybuprocaine hydrochloride (Novesine, Sandoz) was instilled in each eye immediately before each set of pressure measurements.
Results are reported in Table 1 and they are expressed as IOP change (at 60, 120 and 240 minutes following topical administration) versus vehicle and versus IOP at basal before hypertonic saline injection.
Hypertonic Saline-Induced IOP Increase Rabbit Model
as §1, with “compound (9)” for “compound”, “compound (9)” for “compounds”
Experimental data are reported in Table 3 and they are expressed as IOP change (at 60, 120 and 240 minutes following topical administration) versus vehicle and versus IOP at basal before hypertonic saline injection
The hypotensive effects of compound (9) and of ISMN and timolol were evaluated using the same transient ocular hypertensive rabbit model, see Example 9, but in different groups of hypertensive rabbits.

[2] = tested on: ocular normotensive rabbits; experiment: Intraocular pressure (IOP) lowering activity in ocular normotensive New Zealand White rabbits; assay type: in vivo, New Zealand White (NZW) rabbits; conditions: 1% eye drops; for IOP change 60 minutes / IOP change 120 minutes / IOP change 180 minutes / IOP change 240 minutes / IOP change 30 minutes / IOP change 300 minutes: single topical application; for duration of IOP reduction after single application (in words): compared to the reference compound
Protocol: The present study evaluated the long lasting intraocular pressure lowering effect of single application of two compounds of the inventions (compound (1a) and compound (4a)) with respect to a prior art compound, in an ocular normotensive animal model (rabbit) at the same concentrations.
Adult male New Zealand White (NZW) rabbits weighting 1.8-2.0 Kg were used in the experiments.
(§2) IOP was measured using a pneumatonometer 30 CLASSIC™ before topical application (basal) and at different time points (30, 60, 120, 240 and 300 min) thereafter. Vehicle (5% cremophor-EL; 0.3% DMSO; 0.2 mg/ml bac in PBS pH 6.0) or compound of the invention were instilled as eye drops into the conjunctiva pocket. Eyes were randomly assigned to different treatment groups. One drop of 0.4% oxybuprocaine hydrochloride (Novesine, Sandoz) was instilled in each eye immediately before each set of pressure measurements. Results are reported in Table 2 and they are expressed as IOP change (at 60, 120, 180 and 240 minutes following topical administration) versus vehicle and versus IOP at basal.
Ocular Normotensive Rabbit Model
as §2, with “(9) (1%)” for “of the invention”, “measurements.” for “measurements. Results are reported in Table 2 and they are expressed as IOP change (at 60, 120, 180 and 240 minutes following topical administration) versus vehicle and versus IOP at basal.”
Experimental data are reported in Table 4 and they are expressed as IOP change (at 60, 120, 180 and 240 minutes following topical administration) versus vehicle and versus IOP at basal.
The IOP-lowering effects of compound (9) and of the Reference compound were assessed in the same normotensive rabbit model, see Example 10, but using different groups of […] rabbits.

[3] = Table 1, conc. 1% eye drops, versus vehicle and versus basal IOP
[4] = Table 3, 1% eye drops, versus vehicle and basal, references from different groups of rabbits (Example 9)
[5] = Table 2, versus vehicle and versus basal IOP
[6] = Table 4, versus vehicle and basal, reference from different groups of rabbits (Example 10)

SMILES | IOP change 60 minutes [1, 3] [mmHg] | IOP change 120 minutes [1, 3] [mmHg] | IOP change 240 minutes [1, 3] [mmHg] | IOP change 60 minutes [1, 4] [mmHg] | IOP change 120 minutes [1, 4] [mmHg] | IOP change 240 minutes [1, 4] [mmHg] | IOP change 60 minutes [2, 5] [mmHg] | IOP change 120 minutes [2, 5] [mmHg] | IOP change 180 minutes [2, 5] [mmHg] | IOP change 240 minutes [2, 5] [mmHg] | IOP change 30 minutes [2, 6] [mmHg] | IOP change 60 minutes [2, 6] [mmHg] | IOP change 120 minutes [2, 6] [mmHg] | IOP change 180 minutes [2, 6] [mmHg] | IOP change 240 minutes [2, 6] [mmHg] | IOP change 300 minutes [2, 6] [mmHg] | duration of IOP reduction after single application (in words) [2] | IOP reduction after single application (in words) ([1]; 1% eye drops)
O=[N+]([O-])O[C@@H]1CO[C@H]2[C@@H]1OC[C@@H]2O [ISMN, Isosorbide mononitrate, reference compound] | −0.7 ± 2.9 | −6.6 ± 1.8 | −1.2 ± 1.3 | −0.7 ± 2.9 | −6.6 ± 1.8 | −1.2 ± 1.3 |  |  |  |  |  |  |  |  |  |  |  | 
CC(C)(C)NC[C@H](O)COc1nsnc1N1CCOCC1 [Timolol, reference compound] | −5.7 ± 1.4 | −8.4 ± 1.2 | 0.2 ± 1.2 | −5.7 ± 1.4 | −8.4 ± 1.2 | 0.2 ± 1.2 |  |  |  |  |  |  |  |  |  |  |  | 
NCCC(=O)N[C@@H](Cc1c[nH]cn1)C(=O)NC[C@H](CO[N+](=O)[O-])O[N+](=O)[O-].O=C(O)C(F)(F)F [Ref. compound, (R)-3-((S)-2-(3-aminopropanamido)-3-(1H-imidazol-4-yl)propanamido)propane-1,2-diyl dinitrate 2,2,2-trifluoroacetate, reference compound] |  |  |  |  |  |  | −0.8 ± 0.6 | −0.3 ± 0.4 | −0.2 ± 0.4 | −0.05 ± 0.6 | −1.0 ± 0.5 | −0.8 ± 0.6 | −0.3 ± 0.4 | −0.2 ± 0.4 | −0.05 ± 0.6 | −0.7 ± 0.4 |  | 
O=C(CCCCCO[N+](=O)[O-])NCCC(=O)N[C@@H](Cc1c[nH]cn1)C(=O)O [Compound (4a), (S)-3-(1H-imidazol-4-yl)-2-(3-(6-(nitrooxy)hexanamido)propanamido) propanoic acid 2,2,2-trifluoroacetate] | −7.6 ± 1.6 | −9.0 ± 1.2 | −5.3 ± 0.6 |  |  |  | −1.6 ± 0.4 | −1.5 ± 0.6 | −1.4 ± 0.6 | −0.9 ± 0.6 |  |  |  |  |  |  | significantly longer IOP reduction | significant IOP reduction
COC(=O)[C@H](Cc1c[nH]cn1)NC(=O)CCNC(=O)CCCCO[N+](=O)[O-].Cl [Compound (1a), (S)-methyl-3-(1H-imidazol-4-yl)-2-(3-(5-(nitrooxy)pentanamido)propanamido)propanoate hydrochloride] | −11.4 ± 0.8 | −12.9 ± 0.4 | −7.4 ± 0.5 |  |  |  | −1.2 ± 1.0 | −1.5 ± 0.9 | −1.9 ± 0.9 | −1.7 ± 1.2 |  |  |  |  |  |  | significantly longer IOP reduction | significant IOP reduction
COC(=O)[C@H](Cc1c[nH]cn1)NC(=O)CCNC(=O)CCC[C@@H](CO[N+](=O)[O-])O[N+](=O)[O-] [Compound (9), (S)-methyl 2-(3-((S)-5,6-bis(nitrooxy)hexanamido)propanamido)-3-(1H-imidazol-4-yl)propanoate] |  |  |  | −7.2 ± 1.0 | −6.4 ± 1.0 | −3.9 ± 0.9 |  |  |  |  | −1.6 ± 0.2 | −1.0 ± 0.4 | −1.3 ± 0.2 | −1.3 ± 0.3 | −1.5 ± 0.4 | −1.5 ± 0.4 | long lasting IOP-lowering effect | significant IOP reduction
